What was measured:
Phaedon cochleariae = Phaedon cochleariae spray test; format: in vivo; details: larvae on Chinese cabbage leaf discs, after 7 days
Procedure: (§1) Solvent: 78.0 parts by weight of acetone • • 1.5 parts by weight of dimethylformamide Emulsifier: alkylaryl polyglycol ether […] To produce further test concentrations, the formulation is diluted with emulsifier-containing water. Discs of Chinese cabbage leaves (Brassica pekinensis) are sprayed with an active ingredient formulation of the desired concentration and, after drying, populated with larvae of the mustard beetle (Phaedon cochleariae).

Boophilus microplus = Boophilus microplus injection test; format: in vivo; details: application rate 20 μg/animal, after 7 days, laying of fertile eggs
Procedure: Solvent: dimethyl sulfoxide […] The animals are transferred into dishes and kept in a climate-controlled room. Efficacy is assessed after 7 days by laying of fertile eggs. Eggs which are not visibly fertile are stored in a climate-controlled cabinet until the larvae hatch after about 42 days.

Lucilia cuprina = Lucilia cuprina test; format: in vivo; details: application rate 100 ppm, L1 larvae, kill after 2 days
Procedure, shortened: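 About 20 L1 larvae were placed in vessels of minced horsemeat containing compound, formulated in dimethyl sulfoxide and diluted with water to the test concentration. Kill (%) was scored after 2 days; 100% means all larvae dead, 0% none.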

Ctenocephalides felis [1] = assay: Ctenocephalides felis oral test; format: in vivo; details: application rate 100 ppm in citrated cattle blood, kill after 2 days
Source text: Solvent: dimethyl sulfoxide […] Dilution with citrated cattle blood gives the desired concentration. About 20 unfed adult cat fleas (Ctenocephalides felis) are placed into a chamber which is closed at the top and bottom with gauze. A metal cylinder whose bottom end is closed with parafilm is placed onto the chamber. The cylinder contains the blood/active ingredient formulation, which can be imbibed by the fleas through the parafilm membrane.

Spodoptera frugiperda = Spodoptera frugiperda spray test; format: in vivo; details: caterpillars on maize leaf discs, after 7 days
Procedure: as §1, with “Leaf discs” for “Discs”, “maize (Zea mays)” for “Chinese cabbage leaves (Brassica pekinensis)”, “compound” for “ingredient”, “caterpillars” for “larvae”, “armyworm (Spodoptera frugiperda).” for “mustard beetle (Phaedon cochleariae).”

Ctenocephalides felis [2] = assay: Ctenocephalides felis in vitro contact test with adult cat fleas; format: in vivo; details: application rate 5 μg/cm^2 (500 g/ha), after 48 h, dead or moribund fleas
Procedure: After the solvent has evaporated off, the tubes are populated with 5-10 adult cat fleas (Ctenocephalides felis), sealed with a perforated plastic lid and incubated in a horizontal position at room temperature and ambient humidity. After 48 h, efficacy is determined. To this end, the tubes are stood upright and the fleas are knocked to the base of the tube. Fleas which remain motionless at the base or move in an uncoordinated manner are considered to be dead or moribund.

Rhipicephalus sanguineus = Rhipicephalus sanguineus in vitro contact test with adult brown dog ticks; format: in vivo; details: after 48 h, dead or moribund ticks
Procedure: After the solvent has evaporated off, the tubes are populated with 5-10 adult dog ticks (Rhipicephalus sanguineus), sealed with a perforated plastic lid and incubated in a horizontal position in the dark at room temperature and ambient humidity. After 48 h, efficacy is determined. To this end, the ticks are knocked to the base of the tube and incubated on a hotplate at 45-50° C. for not more than 5 min. Ticks which remain motionless on the base or move in such an uncoordinated manner that they are unable to deliberately avoid the heat by climbing upwards are considered to be dead or moribund.

Tetranychus urticae = Tetranychus urticae spray test, OP-resistant; format: in vivo; details: all stages on bean leaf discs, after 6 days
Procedure: Solvent: 78.0 parts by weight of acetone • • 1.5 parts by weight of dimethylformamide Emulsifier: alkylaryl polyglycol ether […] To produce further test concentrations, the formulation is diluted with emulsifier-containing water. Discs of bean leaves (Phaseolus vulgaris) infested with all stages of the greenhouse red spider mite (Tetranychus urticae) are sprayed with an active ingredient formulation of the desired concentration.

Musca domestica = Musca domestica test; format: in vivo; details: application rate 100 ppm, adult houseflies, kill after 2 days
Procedure, shortened: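 Compound dissolved in DMSO (10 mg per 0.5 ml), diluted with water to test concentration and applied to a sugar-solution sponge. Vessels held 10 adult houseflies; percent kill scored after 2 days (100% = all dead).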

[3] = system: cattle ticks (Boophilus microplus) Parkhurst strain, SP-resistant; assay: Boophilus microplus dip test; format: in vivo; details: application rate 100 ppm, after 7 days, laying of fertile eggs
Procedure: Test animals: cattle ticks (Boophilus microplus) Parkhurst strain, SP-resistant
Solvent: dimethyl sulfoxide
10 mg of active ingredient are dissolved in 0.5 ml of dimethyl sulfoxide. To produce a suitable formulation, the active ingredient solution is diluted with water to the concentration desired in each case.
This active ingredient formulation is pipetted into tubes. 8-10 engorged adult female cattle ticks (Boophilus microplus) are transferred into a further tube with holes. The tube is immersed into the active ingredient formulation, and all the ticks are completely wetted. After the liquid has run out, the ticks are transferred on filter disks into plastic dishes and stored in a climate-controlled room.
Efficacy is assessed after 7 days by laying of fertile eggs. Eggs which are not visibly fertile are stored in a climate-controlled cabinet until the larvae hatch after about 42 days. An efficacy of 100% means that none of the ticks has laid any fertile eggs; 0% means that all the eggs are fertile.

[4] = logP determination by HPLC on reversed-phase column (EEC Directive 79/831 Annex V.A8); format: physicochemical; details: Table 1; HPLC C18, acetonitrile/water with formic acid
Meloidogyne incognita = Meloidogyne incognita test; format: in vivo; details: application rate 20 ppm, nematicidal efficacy by formation of galls on lettuce after 14 days
Procedure: Solvent: 125.0 parts by weight of acetone
To produce a suitable active ingredient formulation, 1 part by weight of active ingredient is mixed with the stated amount of solvent and the concentrate is diluted to the desired concentration with water.
Vessels are filled with sand, active ingredient solution, an egg/larvae suspension of the southern root-knot nematode (Meloidogyne incognita) and lettuce seeds. The lettuce seeds germinate and the plants develop. The galls develop on the roots.
After 14 days, the nematicidal efficacy in % is determined by the formation of galls. 100% means that no galls were found; 0% means that the number of galls on the treated plants corresponds to the untreated control.

[5] = application rate 5 μg/cm^2 (500 g/ha)

| lgP [4] | SMILES | efficacy (Phaedon cochleariae; application rate 100 g/ha) | efficacy (Boophilus microplus) | efficacy (Lucilia cuprina) | efficacy (Ctenocephalides felis [1]) | efficacy (Spodoptera frugiperda; application rate 100 g/ha) | efficacy (Ctenocephalides felis [2]) | efficacy (Rhipicephalus sanguineus; [5]) | efficacy (Tetranychus urticae; application rate 100 g/ha) | efficacy (Musca domestica) | efficacy [3] | efficacy (Phaedon cochleariae; application rate 500 g/ha) | efficacy (Spodoptera frugiperda; application rate 500 g/ha) | efficacy (Tetranychus urticae; application rate 500 g/ha) | efficacy (Rhipicephalus sanguineus; application rate 1 μg/cm^2 (100 g/ha)) | efficacy (Meloidogyne incognita) |
| --- | --- | --- | --- | --- | --- | --- | --- | --- | --- | --- | --- | --- | --- | --- | --- | --- |
| – | O=C(Nc1ccc(F)c(-c2cnn(-c3c(Br)cc(C(F)(C(F)(F)F)C(F)(F)F)cc3C(F)(F)F)c2)c1)c1ccncc1 [Example 2-13] | 100% | 100% | 100% | 100% | 100% | 80% | 80% | 90% | 100% | 100% | – | – | – | – | – |
| lgP 4.84 | Cc1cc(C(F)(C(F)(F)F)C(F)(F)F)cc(C)c1-n1cc(-c2ccc(F)c(NC(=O)c3ccc(F)cc3)c2F)cn1 [Example 7] | 100% | 100% | 80% | – | 83% | 100% | 80% | 100% | – | – | – | – | – | – | – |
| lgP 4.41 | Cc1cc(C(F)(C(F)(F)F)C(F)(F)F)cc(C)c1-n1cc(-c2ccc(Cl)c(NC(=O)c3ccncc3)c2)cn1 [Example 2] | – | 100% | 100% | 100% | 100% | 100% | 100% | 100% | 100% | 100% | 100% | 100% | 100% | – | – |
| lgP 3.97 | Cc1cc(C(F)(C(F)(F)F)C(F)(F)F)cc(C)c1-n1cc(-c2cnc(Cl)c(NC(=O)c3ccncc3)c2)cn1 [Example 12] | 100% | 100% | 90% | 100% | 100% | 100% | 80% | 100% | 100% | – | – | – | – | – | – |
| – | Cc1cc(C(F)(C(F)(F)F)C(F)(F)F)cc(C(F)(F)F)c1-n1cc(-c2cc(NC(=O)c3ccc(C#N)nc3)ccc2F)cn1 [Example 2-3] | 100% | 100% | 100% | 100% | 100% | – | – | 90% | 100% | – | – | – | – | – | 90% |
| – | Cc1cc(C(F)(C(F)(F)F)C(F)(F)F)cc(C(F)(F)F)c1-n1cc(-c2ccc(F)c(NC(=O)c3ccsc3)c2)cn1 [Example 31] | 100% | 100% | 100% | 100% | 100% | – | – | 100% | 100% | 90% | – | – | – | – | – |
| – | Cc1cc(C(F)(C(F)(F)F)C(F)(F)F)cc(C(F)(F)F)c1-n1cc(-c2cc(NC(=O)c3ccc(Cl)nc3)ccc2F)cn1 [Example 2-4] | 100% | 100% | 90% | 95% | 100% | – | – | – | – | – | – | – | – | – | 90% |
| – | Cc1cc(C(F)(C(F)(F)F)C(F)(F)F)cc(C(F)(F)F)c1-n1cc(-c2ccc(F)c(NC(=O)c3ccncc3)c2)cn1 [Example 50] | 100% | 100% | 100% | 100% | 100% | 100% | 80% | 100% | 100% | – | – | – | – | – | – |

| SMILES | lgP [4] | efficacy (Phaedon cochleariae; application rate 100 g/ha) | efficacy (Boophilus microplus) | efficacy (Lucilia cuprina) | efficacy (Ctenocephalides felis [1]) | efficacy (Spodoptera frugiperda; application rate 100 g/ha) | efficacy (Ctenocephalides felis [2]) | efficacy (Rhipicephalus sanguineus; [5]) | efficacy (Tetranychus urticae; application rate 100 g/ha) | efficacy (Musca domestica) | efficacy [3] | efficacy (Phaedon cochleariae; application rate 500 g/ha) | efficacy (Spodoptera frugiperda; application rate 500 g/ha) | efficacy (Tetranychus urticae; application rate 500 g/ha) | efficacy (Rhipicephalus sanguineus; application rate 1 μg/cm^2 (100 g/ha)) | efficacy (Meloidogyne incognita) |
| --- | --- | --- | --- | --- | --- | --- | --- | --- | --- | --- | --- | --- | --- | --- | --- | --- |
| Cc1cc(C(F)(C(F)(F)F)C(F)(F)F)cc(C)c1-n1cc(-c2ccc(F)c(NC(=O)c3ccncc3)c2)cn1 [Example 6] | lgP 4.04 | 100% | 100% | 100% | 100% | 100% | 100% | – | 100% | 100% | – | – | – | – | 100% | – |

Reference: US10202351B2, “Pyrazolyl derivatives as pest control agents” (BAYER ANIMAL HEALTH GMBH, priority 2015, dated 2019)
